Experimental data reported in patent US20240101570A1 (AMGEN INC., priority 2020, published 2024).
Read-outs that look alike come from different tables or passages of the source.

Columns and labels:
HCT116 WT cells = test: HCT116 WT cell proliferation / viability (CellTiter-Glo, 6 days); assay type: cell-based; conditions: HCT116 WT cells, 6 days, CellTiter-Glo, read-out: HCT-116 WT IC50
Method in brief: (§1)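 Viability read by CellTiter-Glo after 6-day compound exposure of MTAP-null and wild-type HCT116 cells grown in RPMI 1640 with 10% FBS. Dosing used 1:3 steps from 1 or 10 μM (8-9 points) or 1:2 steps from 10 or 50 μM (22 points); IC50 taken where fitted curve crosses 50% of control.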

HCT116 MTAP null cells = test: HCT116 MTAP null cell proliferation / viability (CellTiter-Glo, 6 days); assay type: cell-based; conditions: HCT116 MTAP null cells, 6 days, CellTiter-Glo, read-out: HCT-116 MTAP null IC50
Method in brief: as §1

SMILES	IC50 (HCT116 WT cells; Homo sapiens, HCT-116, 144 h) [nM]	IC50 (HCT116 MTAP null cells; HCT116-MTAP null, 144 h) [nM]	IC50 (HCT116 WT cells) [nM]	IC50 (HCT116 MTAP null cells) [nM]
CC(C)N(Cc1ccc(C(F)(F)F)cn1)C(=O)c1cc2c3c(c(N)nc2cc1Cl)COC3 [Example 484, 4-amino-7-chloro-N-(2-propanyl)-N-((5-(trifluoromethyl)-2-pyridinyl)methyl)-1,3-dihydrofuro[3,4-c]quinoline-8-carboxamide]	402	20		
CN(C(=O)c1cc2c3c(c(N)nc2cn1)COC3)C(c1ccc(C(F)(F)F)cn1)C1CC1 (racemic) [Example 764, 4-amino-N-((R)-cyclopropyl(5-(trifluoromethyl)-2-pyridinyl)methyl)-N-methyl-1,3-dihydrofuro[3,4-c][1,7]naphthyridine-8-carboxamide and 4-amino-N-((S)-cyclopropyl(5-(trifluoromethyl)-2-pyridinyl)methyl)-N-methyl-1,3-dihydrofuro[3,4-c][1,7]naphthyridine-8-carboxamide]	> 50000	6380		
CCN(C(=O)c1cc2c3c(c(N)nc2cc1F)COC3)C(C)c1ccc(Cl)nc1 (racemic) [Example 739, 4-amino-N-((1R)-1-(6-chloro-3-pyridinyl)ethyl)-N-ethyl-7-fluoro-1,3-dihydrofuro[3,4-c]quinoline-8-carboxamide and 4-amino-N-((1S)-1-(6-chloro-3-pyridinyl)ethyl)-N-ethyl-7-fluoro-1,3-dihydrofuro[3,4-c]quinoline-8-carboxamide]	2220	71		
CN(Cc1ccc(C(F)(F)F)cn1)C(=O)c1cc2c(cc1F)nc(N)c1cnn(C)c12 [Example 802, 4-amino-7-fluoro-N,1-dimethyl-N-((5-(trifluoromethyl)-2-pyridinyl)methyl)-1H-pyrazolo[4,3-c]quinoline-8-carboxamide]	1380	21		
CO[C@@H]1CCOC[C@H]1N(Cc1ccc(C#N)c(C)n1)C(=O)c1ccc2nc(N)c3c(c2c1)COC3 (single isomer, unassigned) [Example 588]			1950	79
Nc1nc2ccc(C(=O)N(Cc3ccc(Br)nn3)CC3CC3)cc2c2c1COC2 [Example 674, 4-amino-N-((6-bromo-3-pyridazinyl)methyl)-N-(cyclopropylmethyl)-1,3-dihydrofuro[3,4-c]quinoline-8-carboxamide]	2580	73		
CN(Cc1ccc(Br)cn1)C(=O)c1ccc2nc(N)c3c(c2c1)COC3 [Example 330, 4-amino-N-((5-bromo-2-pyridinyl)methyl)-N-methyl-1,3-dihydrofuro[3,4-c]quinoline-8-carboxamide]	> 10000	204		
CN(Cc1ccc(F)cn1)C(=O)c1cc2c(cc1F)nc(N)c1cnn(C)c12 [Example 770, 4-amino-7-fluoro-N-((5-fluoro-2-pyridinyl)methyl)-N,1-dimethyl-1H-pyrazolo[4,3-c]quinoline-8-carboxamide]	19400	253		
CC(C)N(C(=O)c1cc2c3c(c(N)nc2cc1F)COC3)[C@@H](C)c1ccc(C(F)(F)F)cn1 (single isomer, unassigned) [Example 841]	11600	613		
C[C@@H](c1ccc(S(F)(F)(F)(F)F)cc1)N(C)C(=O)c1cc2c(cc1F)nc(N)c1cnn(C)c12 (single isomer, unassigned) [Example 869]	8430	627		
C[C@H]1OCc2c1c(N)nc1ccc(C(=O)N(Cc3ccc(C(F)(F)F)cn3)C34CC(C3)C4)cc21 [Example 380, (3R)-4-amino-N-(bicyclo[1.1.1]pentan-1-yl)-3-methyl-N-((5-(trifluoromethyl)-2-pyridinyl)methyl)-1,3-dihydrofuro[3,4-c]quinoline-8-carboxamide]	4100	56		
CCN(C(=O)c1ccc2nc(N)c3c(c2c1)COC3)[C@@H](c1ccc(C(F)(F)F)nn1)C1CC1 [Example 783, 4-amino-N-((R)-cyclopropyl(6-(trifluoromethyl)-3-pyridazinyl)methyl)-N-ethyl-1,3-dihydrofuro[3,4-c]quinoline-8-carboxamide]	16400	868		
CCN(C(=O)c1cc2c3c(c(N)nc2cc1Cl)COC3)[C@H](C)c1ccc(C(F)(F)F)cn1 [Example 738, 4-amino-7-chloro-N-ethyl-N-((1R)-1-(5-(trifluoromethyl)-2-pyridinyl)ethyl)-1,3-dihydrofuro[3,4-c]quinoline-8-carboxamide]	430	13		
Nc1nc2cnc(C(=O)N(Cc3ccc(C(F)(F)F)nn3)C3CCC3)cc2c2c1COC2 [Example 721, 4-amino-N-cyclobutyl-N-((6-(trifluoromethyl)-3-pyridazinyl)methyl)-1,3-dihydrofuro[3,4-c][1,7]naphthyridine-8-carboxamide]	9410	209		
Cn1cc(N(Cc2ccc(C(F)(F)F)nn2)C(=O)c2cc3c4c(c(N)nc3cc2F)COC4)cn1 [Example 750, 4-amino-7-fluoro-N-(1-methyl-1H-pyrazol-4-yl)-N-((6-(trifluoromethyl)-3-pyridazinyl)methyl)-1,3-dihydrofuro[3,4-c]quinoline-8-carboxamide]	767	23		
CO[C@@H]1CCOC[C@H]1N(Cc1ccc(C(F)(F)F)cn1)C(=O)c1ccc2nc(N)c3c(c2c1)COC3 (single isomer, unassigned) [Example 586]	150	12		
Nc1nc2cc(F)c(C(=O)N(Cc3ccc(C(F)(F)F)cn3)C3CC3)cc2c2c1cnn2CC(F)(F)F [Example 570, 4-amino-N-cyclopropyl-7-fluoro-1-(2,2,2-trifluoroethyl)-N-((5-(trifluoromethyl)-2-pyridinyl)methyl)-1H-pyrazolo[4,3-c]quinoline-8-carboxamide]	329	757		
Nc1nc2cnc(C(=O)N(Cc3ccc(C(F)(F)F)cn3)CC(F)(F)F)cc2c2c1COC2 [Example 486, 4-amino-N-(2,2,2-trifluoroethyl)-N-((5-(trifluoromethyl)-2-pyridinyl)methyl)-1,3-dihydrofuro[3,4-c][1,7]naphthyridine-8-carboxamide]	17500	445		
CC1OCc2c1c(N)nc1ccc(C(=O)N(Cc3ccc(C(F)(F)F)cn3)CC3CCOCC3)cc21 (centres unmarked) [Example 895, 4-amino-3-methyl-N-((tetrahydro-2H-pyran-4-yl)methyl)-N-((5-(trifluoromethyl)pyridin-2-yl)methyl)-1,3-dihydrofuro[3,4-c]quinoline-8-carboxamide]	550	51		
Nc1nc2cnc(C(=O)N(Cc3ccc(C(F)(F)F)cn3)c3cnn(C(F)(F)F)c3)cc2c2c1COC2 [Example 732, 4-amino-N-(1-(trifluoromethyl)-1H-pyrazol-4-yl)-N-((5-(trifluoromethyl)-2-pyridinyl)methyl)-1,3-dihydrofuro[3,4-c][1,7]naphthyridine-8-carboxamide]	2850	87		
CC(C)N(Cc1ccc(C2CC2)cn1)C(=O)c1cc2c3c(c(N)nc2cn1)[C@H](C)OC3 [Example 407, (3S)-4-amino-N-((5-cyclopropyl-2-pyridinyl)methyl)-3-methyl-N-(2-propanyl)-1,3-dihydrofuro[3,4-c][1,7]naphthyridine-8-carboxamide]	> 10000	3660		
COC[C@@H](C)N(Cc1ccc(Cl)nn1)C(=O)c1ccc2nc(N)c3c(c2c1)COC3 [Example 305, 4-amino-N-((6-chloro-3-pyridazinyl)methyl)-N-((2R)-1-methoxy-2-propanyl)-1,3-dihydrofuro[3,4-c]quinoline-8-carboxamide]	861	27		
COC[C@H](C1CC1)N(Cc1ccc(N2CCOCC2)nn1)C(=O)c1ccc2nc(N)c3c(c2c1)COC3 [Example 641, 4-amino-N-((1S)-1-cyclopropyl-2-methoxyethyl)-N-((6-(4-morpholinyl)-3-pyridazinyl)methyl)-1,3-dihydrofuro[3,4-c]quinoline-8-carboxamide]	242	16		
CCN(Cc1ccc(OC(F)F)nn1)C(=O)c1ccc2nc(N)c3c(c2c1)CO[C@@H]3C [Example 726, (3R)-4-amino-N-((6-(difluoromethoxy)-3-pyridazinyl)methyl)-N-ethyl-3-methyl-1,3-dihydrofuro[3,4-c]quinoline-8-carboxamide]	7520	109		
CCN(C(=O)c1ccc2nc(N)c3c(c2c1)COC3)[C@@H](C)c1ccc(C(F)(F)F)cn1 (single isomer, unassigned) [Example 821]	> 50000	4190		
CC(C)N(Cc1cnc(C(F)(F)F)cn1)C(=O)c1ccc2nc(N)c3c(c2c1)CO[C@@H]3C [Example 434, (3R)-4-amino-3-methyl-N-(2-propanyl)-N-((5-(trifluoromethyl)-2-pyrazinyl)methyl)-1,3-dihydrofuro[3,4-c]quinoline-8-carboxamide]	23900	584		
CN(Cc1ccc(C(F)(F)F)cc1)C(=O)c1cc2c3c(c(N)nc2cn1)COC3 [Example 692, 4-amino-N-methyl-N-(4-(trifluoromethyl)benzyl)-1,3-dihydrofuro[3,4-c][1,7]naphthyridine-8-carboxamide]	> 10000	449		
Cn1ncc2c(N)nc3cc(Cl)c(C(=O)N(Cc4ccc(C(F)(F)F)cn4)C4CCC4)cc3c21 [Example 798, 4-amino-7-chloro-N-cyclobutyl-1-methyl-N-((5-(trifluoromethyl)-2-pyridinyl)methyl)-1H-pyrazolo[4,3-c]quinoline-8-carboxamide]	152	10		
